Measured values taken from patent publication US12195477B2, “Derivative of berberine, and the preparation method and application thereof” (priority 2021, dated 2025).

Assays:
[1] = test system: primary cardiac cells from neonatal mice; test: Cytotoxicity test, CCK-8 assay; format: cell-based; details: 24 hours
Source text: The toxicity of the novel compound, brominated 9-O-propyl berberine thiazole formate, on the primary cardiac cells from neonatal mice was detected using CCK-8 assay. The CCK-8 agent contains WST-8, which has the chemical name: 2-(2-methoxy-4-nitrophenyl)-3-(4-nitrophenyl)-5-(2,4-disulfophenyl)-2H-tetrazolium sodium salt. It can be reduced to yellow formazan with high water solubility by the dehydrogenase existing in the mitochondrion in a cell in the presence of electron carrier 1-methoxy-5-methylphenazinium methyl sulfate (1-Methoxy PMS). The amount of formazan generated is proportional to the number of live cells. The absorbance is detected at a wavelength of 450 nm by an enzyme-linked immunosorbent assay, which represents the number of live cells, in which a larger value indicates a higher cell activity. […]
After digestion, the primary cardiac cells from neonatal mice were re-suspended into a 96-well plate at a appropriate concentration with volume of 100 μl for each well. […] After incubation at 37° C. for 1-4 hours, the mixture was placed in a micro-plate reader and shaken for 10 s. The absorbance at 450 nm (OD450) was recorded.
The relative inhibition rate of the compound at various concentrations on the primary cardiac cells from neonatal mice was calculated based on the equation: cell inhibition rate (%)=(1−OD450 of the sample group/OD450 of the control group)*100. […]

[2] = test system: myocardial infarcted mice; test: Mouse model of myocardial infarction (ligation of the left anterior descending coronary artery), cardiac function by ultrasonography; format: in vivo, C57BL/6 male mice; details: 2 weeks
Source text: The mouse model of myocardial infarction was established by ligation of the left anterior descending branch of the coronary artery. The agent was then administrated to the mice to determine the effect of the test sample on myocardial ischemia, and the effect of the test sample on the cardiac functions of the myocardial infarct mice.
Random grouping: the C57BL/6 mice were randomly divided into 5 groups, namely the sham-operation group, the myocardial infarction group, the berberine group (berberine at a dosage of 40 mg/kg·d^−1), the test compound group (brominated 9-O-propyl berberine thiazole formate at a dosage of 40 mg/kg·d^−1) and the positive control group (sacubitril and valsartan sodium at a dosage of 26 mg/kg·d^−1).
The mouse model of myocardial ischemia was established by ligation of the left anterior descending branch of the coronary artery. Healthy male C57BL/6 mice (28±2 g) were anesthetized by intraperitoneal injection of aphrodin (0.2 g/kg). The anesthetic mice were placed in a supine position on the operation desk with the trachea connected to a ventilator by inserting a tracheal tube. An incision of about 0.5˜4.0 cm was made on the skin of the left chest from the upper left to the lower right. Pectoralis minor and serratus anterior were separated. The intercostal muscle was bluntly separated between the fourth and fifth rib, and the heart was slightly squeezed out.
Except for the sham-operation group, coronary artery ligation was performed to all other mice. The mice were randomly divided into 4 groups 24 hours after ligation, including the myocardial infarction group, the berberine group, the brominated 9-O-propyl berberine thiazole formate group and the positive control group. Blank solvent, berberine, brominated 9-O-propyl berberine thiazole formate and positive control sacubitril and valsartan sodium were administrated to the mice by gavage (as shown in Table 1) for consecutive 14 days. […]
The Experiment data were expressed as mean±standard error. […] All experiment results were statistically analyzed by Graphpad Prism 8.0.

[3] = test system: primary cardiac cells from neonatal mice after H2O2 treatment; test: SOD in H2O2-injured primary cardiac cells (WST-1 assay); format: cell-based
Procedure: Dismutation of superoxide anion can be catalyzed by superoxide dismutase (SOD) to give hydrogen peroxide and oxygen. SOD is a kind of important antioxidases in organisms. SOD plays a vital role in the equilibrium between oxidation and anti-oxidation in organisms. SOD is able to scavenge superoxide anion free radicals and protect cells from injuries. In this test, the SOD activity was determined using WST-1 assay.
(§1) After disinfecting the neonatal mice (within 3 days after birth) by alcohol, the skin and sternum of the left chest were cut off at one time using a scissor. The heart was then squeezed out, taken and put into a pre-cooled FBS-free DMEM culture medium with a curved forceps. The blood vessels on the surface of heart, the residual blood and the attached lung tissue were removed. The heart tissue was cut into pieces with homogeneous size. The heart pieces were drawn into a 15 ml centrifuge tube, and the supernatant was discarded. The tissue was rinsed by PBS for 2-3 times. The trypsinization solution was added at equivalent volume of the heart tissue. The centrifuge tube was kept shaken to accelerate digestion. After the solution become turbid, the digestion was stopped by transferring the solution to DMEM culture medium. After the digestion of all heart tissues was completed, the digest was filtered by a sieve, and centrifuged at 1500 rpm for 5 min. […]
(§2) After digestion, the primary cardiac cells from neonatal mice were re-suspended into a 6-well plate at a appropriate concentration with volume of 2 mL for each well. […] The activity of SOD and the content of ATP in the cells were determined according to the instruction provided in the SOD and ATP detection kit, respectively. […]
(§3) The experiment data were expressed as mean±standard error. The SOD and ATP content in the cells in each group were analyzed by One-way ANOVA, with P<0.05 indicating a significant difference. All experiment results were statistically analyzed and plotted using Graphpad Prism 8.0.

[4] = test system: primary cardiac cells from neonatal mice after H2O2 treatment; test: ATP in H2O2-injured primary cardiac cells (luciferase kit); format: cell-based
Source text: A kit has been used in this study, based on that ATP is demanded to provide energy during the fluorescence production by the fluorescein catalyzed by the firefly luciferase (also termed as luciferase). When both luciferase and fluorescein are excessive, in a certain concentration range, the fluorescence generated is proportional to the concentration of ATP. That is, the concentration of ATP in the solution can be detected sensitively.
as §1, §2, §3

[5] = 40 mg/kg gavage once per day, ##P<0.01
[6] = vs. the model group, among 1, 2.5 and 5 μM, H2O2 100 μM

COc1ccc2cc3[n+](cc2c1OCCCOC(=O)c1cscn1)CCc1cc2c(cc1-3)OCO2.[Br-] [9-(3-((thiazole-4-carbonyl)oxy)propoxy)-10-methoxy-5,6-dihydro-[1,3]dioxolo[4,5-g]isoquinolino[3,2-a]isoquinolin-7-ium bromide]
inhibition at 1000 µM ([1]; Mus musculus, 1000 μM, CCK-8, OD450, read-out: cell inhibition rate): 41%
toxicity on primary cardiac cells ([1]; concentration range tested 0.1-1000 μM): low toxicity
ejection fraction (EF) vs. the myocardial infarction group [2, 5]: significantly increased
fraction shortening (FS) vs. the myocardial infarction group [2, 5]: significantly increased
effect on EF and FS compared with berberine ([2]; both 40 mg/kg gavage, &P<0.05 vs. the berberine group): better than that of the berberine
SOD content vs. the model group ([3]; 1, 2.5 and 5 μM, H2O2 100 μM, 24 hours, #P<0.05, ###P<0.001): increased
SOD effect compared with berberine ([3]; same concentration (5 μM), &P<0.05): apparently better than the effect of berberine at the same concentration
highest enhancement of the SOD content [3, 6]: 43.4%
ATP content vs. the model group ([4]; 1, 2.5 and 5 μM, H2O2 100 μM, 24 hours, ##P<0.01, ###P<0.001): increased
ATP effect compared with berberine ([4]; same concentration (5 μM), &&P<0.01): apparently better than the effect of berberine at the same concentration
highest enhancement of the ATP content [4, 6]: 59.1%
